# Test results taken from the supplement of paper PMC10307832.
# Compound: CC1=C(C(=NN1)C)CC2=C(C3=C(S2)N(C(=O)N(C3=O)C)CC(C)C)C(=O)N4C[C@@H](CO4)O + CC(C)C[C@H](NC(=O)[C@H](Cc1ccccc1)NC(=O)c1cnccn1)B(O)O [Bortezomib] (partner 0.002 µM)
# Test: relative viability (nuclei count vs DMSO), 5 days (fraction); higher = more cells survive
# Conditions: first compound 0.0025 µM
# How it was run: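 Values are medians from duplicate plates. Each reflects relative viability, defined as the nuclei count of treated wells over that of vehicle wells. Lung cancer cell lines in 1536-well plates were pin-tool dosed one day after seeding with one drug alone or with a fixed anchor-drug dose plus five library-drug doses (not always all listed) in √10 steps, then fixed, stained and imaged at 4× after 5 days.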
row,Cell Line,relative viability
1,H3255,0.819
2,COR-L23,1.07
3,COR-L 105,0.841
4,LOU-NH91,0.473
5,ChaGo-K-1,0.906
6,NCI-H2405,0.991
7,HOP-62,0.535
8,HCC-44,0.901
9,LU99A,1.37
10,BEN,0.772
11,HARA,1.21
12,HCC-78,0.526
13,NCI-H322M,1.34
14,LCLC-97TM1,0.657
15,NCI-H2009,1.03
16,A-427,0.945

row,Cell Line,relative viability
1,NCI-H441,0.822
2,NCI-H661,1
3,NCI-H1734,0.946
4,NCI-H460,1.1
5,NCI-H2347,1.09
6,SK-LU-1,1.15
7,201T,1.15
8,NCI-H1915,0.987
9,HCC-827,0.923
10,LXF-289,1
11,NCI-H23,1.07
12,NCI-H647,1.27
13,NCI-H1651,0.956
14,EPLC-272H,0.919
15,NCI-H1792,0.94
16,NCI-H1355,1.2

# Same assay, conditions: first compound 0.007906 µM
row,Cell Line,relative viability
1,H3255,0.79
2,COR-L23,0.895
3,COR-L 105,0.763
4,LOU-NH91,0.486
5,ChaGo-K-1,0.859
6,NCI-H2405,0.912
7,HOP-62,1.03
8,HCC-44,0.904
9,LU99A,1.21
10,BEN,0.74
11,HARA,1.15
12,HCC-78,0.614
13,NCI-H322M,1.19
14,LCLC-97TM1,0.484
15,NCI-H2009,1.08
16,A-427,1

row,Cell Line,relative viability
1,NCI-H441,0.34
2,NCI-H661,1.01
3,NCI-H1734,0.736
4,NCI-H460,1.37
5,NCI-H2347,1.15
6,SK-LU-1,0.752
7,201T,1.07
8,NCI-H1915,1.03
9,HCC-827,1.04
10,LXF-289,0.972
11,NCI-H23,1.24
12,NCI-H647,1.09
13,NCI-H1651,1.02
14,EPLC-272H,0.874
15,NCI-H1792,1.01
16,NCI-H1355,1.28

# Same assay, conditions: first compound 0.025 µM
row,Cell Line,relative viability
1,H3255,0.734
2,COR-L23,0.888
3,COR-L 105,0.882
4,LOU-NH91,0.546
5,NCI-H2405,0.918
6,HOP-62,0.753
7,HCC-44,0.9
8,LU99A,1.07
9,BEN,0.532
10,HARA,1
11,HCC-78,0.535
12,NCI-H322M,1.33
13,LCLC-97TM1,0.347
14,NCI-H2009,0.975
15,A-427,1.03
16,NCI-H441,0.626

row,Cell Line,relative viability
1,NCI-H661,0.692
2,NCI-H1734,0.893
3,NCI-H460,0.984
4,NCI-H2347,0.684
5,SK-LU-1,0.425
6,201T,1.03
7,NCI-H1915,0.974
8,HCC-827,0.985
9,LXF-289,1
10,NCI-H23,0.848
11,NCI-H647,0.802
12,NCI-H1651,0.889
13,EPLC-272H,0.971
14,NCI-H1792,0.861
15,NCI-H1355,1.24

# Same assay, conditions: first compound 0.07906 µM
row,Cell Line,relative viability
1,H3255,0.758
2,COR-L23,0.754
3,COR-L 105,0.73
4,LOU-NH91,0.423
5,ChaGo-K-1,1.11
6,NCI-H2405,0.858
7,HOP-62,0.557
8,HCC-44,0.893
9,LU99A,1.14
10,BEN,0.675
11,HARA,0.979
12,HCC-78,0.543
13,NCI-H322M,1.23
14,LCLC-97TM1,0.637
15,NCI-H2009,1.09
16,A-427,0.975

row,Cell Line,relative viability
1,NCI-H441,0.636
2,NCI-H661,0.882
3,NCI-H1734,0.835
4,NCI-H460,1.07
5,NCI-H2347,0.718
6,SK-LU-1,0.789
7,201T,1.06
8,NCI-H1915,0.827
9,HCC-827,0.913
10,LXF-289,1.02
11,NCI-H23,0.964
12,NCI-H647,1.11
13,NCI-H1651,0.879
14,EPLC-272H,1.01
15,NCI-H1792,0.878
16,NCI-H1355,1.15

# Same assay, conditions: first compound 0.25 µM
row,Cell Line,relative viability
1,H3255,1.02
2,COR-L23,0.865
3,COR-L 105,0.802
4,LOU-NH91,0.476
5,ChaGo-K-1,1.35
6,NCI-H2405,0.941
7,HOP-62,1.07
8,HCC-44,0.797
9,LU99A,1.2
10,BEN,0.665
11,HARA,1.1
12,HCC-78,0.413
13,NCI-H322M,1.19
14,LCLC-97TM1,0.949
15,NCI-H2009,1.13
16,A-427,0.944

row,Cell Line,relative viability
1,NCI-H441,0.707
2,NCI-H661,0.635
3,NCI-H1734,0.747
4,NCI-H460,1.28
5,NCI-H2347,0.852
6,SK-LU-1,0.541
7,201T,1.12
8,NCI-H1915,1.03
9,HCC-827,1.08
10,LXF-289,1.07
11,NCI-H23,1.33
12,NCI-H647,1.1
13,NCI-H1651,0.856
14,EPLC-272H,0.925
15,NCI-H1792,0.786
